Data taken from PubChem BioAssay (NCI).
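Grown in 96-well plates, cells were treated for 48 hours with each compound at five concentrations. Insufficient inhibition: endpoint recorded as highest concentration tested. Here, GI50 denotes the concentration required for 50% inhibition of growth. TGI is the concentration that stops growth completely.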

Tests used:
Test in all cases: DTP human tumour cell line panel, 48 h
[1] = system: 786-0 renal
[2] = system: UO-31 renal
[3] = system: HL-60(TB) leukemia
[4] = system: RXF 393 renal
[5] = system: EKVX NSCLC
[6] = system: DU-145 prostate
[7] = system: MDA-N
[8] = system: NCI-H460 lung
[9] = system: U251 CNS
[10] = system: SW-620 colon
[11] = system: SNB-75 CNS
[12] = system: CCRF-CEM leukemia
[13] = system: NCI-H522 lung
[14] = system: KM12 colon
[15] = system: OVCAR-8 ovarian
[16] = system: SN12C renal
[17] = system: HCT-15 colon
[18] = system: OVCAR-5 ovarian
[19] = system: HS 578T breast
[20] = system: HT29 colon
[21] = system: CAKI-1 renal
[22] = system: NCI-H226 lung
[23] = system: OVCAR-3 ovarian
[24] = system: MDA-MB-435
[25] = system: SK-MEL-28 melanoma
[26] = system: OVCAR-4 ovarian
[27] = system: TK-10 renal
[28] = system: UACC-62 melanoma
[29] = system: UACC-257 melanoma
[30] = system: RPMI-8226 leukemia
[31] = system: SK-OV-3 ovarian
[32] = system: SR leukemia
[33] = system: LOX IMVI melanoma
[34] = system: IGROV1 ovarian
[35] = system: MALME-3M melanoma
[36] = system: MCF7 breast
[37] = system: HOP-62 NSCLC
[38] = system: SF-539 CNS
[39] = system: MDA-MB-231 breast
[40] = system: A549 NSCLC
[41] = system: SF-268 CNS
[42] = system: HOP-92 NSCLC
[43] = system: SNB-19 CNS
[44] = system: SK-MEL-2 melanoma
[45] = system: NCI/ADR-RES ovarian
[46] = system: PC-3 prostate
[47] = system: ACHN renal
[48] = system: M14 melanoma
[49] = system: COLO 205 colon
[50] = system: SF-295 CNS
[51] = system: HCT-116 colon
[52] = system: NCI-H23 lung
[53] = system: SK-MEL-5 melanoma
[54] = system: K-562 leukemia
[55] = system: MOLT-4 leukemia
[56] = system: A498 renal
[57] = system: T-47D breast
[58] = system: BT-549 breast
[59] = system: HCC-2998 colon

SMILES: CN(NC(=O)/C(=C/c1ccc(Cl)cc1)NC(=O)c1ccccc1)c1cn[nH]c(=O)c1Cl
- TGI [1]: > 100 µM
- TGI [2]: > 100 µM
- TGI [3]: 41.6 µM
- TGI [4]: > 100 µM
- TGI [5]: > 100 µM
- TGI [6]: > 100 µM
- TGI [7]: > 100 µM
- TGI [8]: > 100 µM
- TGI [9]: > 100 µM
- TGI [10]: > 100 µM
- TGI [11]: > 100 µM
- TGI [12]: > 100 µM
- TGI [13]: 56.6 µM
- TGI [14]: > 100 µM
- TGI [15]: > 100 µM
- TGI [16]: > 100 µM
- TGI [17]: > 100 µM
- TGI [18]: > 100 µM
- TGI [19]: > 100 µM
- TGI [20]: > 100 µM
- TGI [21]: > 100 µM
- TGI [22]: > 100 µM
- TGI [23]: > 100 µM
- TGI [24]: > 100 µM
- TGI [25]: > 100 µM
- TGI [26]: > 100 µM
- TGI [27]: > 100 µM
- TGI [28]: > 100 µM
- TGI [29]: > 100 µM
- TGI [30]: 53.5 µM
- TGI [31]: > 100 µM
- TGI [32]: > 100 µM
- TGI [33]: > 100 µM
- TGI [34]: > 100 µM
- TGI [35]: > 100 µM
- TGI [36]: > 100 µM
- TGI [37]: > 100 µM
- TGI [38]: > 100 µM
- TGI [39]: > 100 µM
- TGI [40]: > 100 µM
- TGI [41]: > 100 µM
- TGI [42]: > 100 µM
- TGI [43]: > 100 µM
- TGI [44]: > 100 µM
- TGI [45]: > 100 µM
- TGI [46]: > 100 µM
- TGI [47]: > 100 µM
- TGI [48]: > 100 µM
- TGI [49]: > 100 µM
- TGI [50]: > 100 µM
- TGI [51]: > 100 µM
- TGI [52]: > 100 µM
- TGI [53]: > 100 µM
- TGI [54]: > 100 µM
- TGI [55]: 84.2 µM

SMILES: O=C(NC(=S)Nc1ccccn1)c1ccccc1
- GI50 [1]: > 100 µM
- TGI [1]: > 100 µM
- GI50 [2]: 39.2 µM
- TGI [2]: > 100 µM
- GI50 [3]: > 100 µM
- TGI [3]: > 100 µM
- GI50 [4]: > 100 µM
- TGI [4]: > 100 µM
- GI50 [5]: 85.2 µM
- TGI [5]: > 100 µM
- GI50 [6]: > 100 µM
- TGI [6]: > 100 µM
- GI50 [8]: > 100 µM
- TGI [8]: > 100 µM
- GI50 [9]: > 100 µM
- TGI [9]: > 100 µM
- GI50 [10]: > 100 µM
- TGI [10]: > 100 µM
- GI50 [11]: > 100 µM
- TGI [11]: > 100 µM
- GI50 [12]: > 100 µM
- TGI [12]: > 100 µM
- GI50 [13]: > 100 µM
- TGI [13]: > 100 µM
- GI50 [14]: > 100 µM
- TGI [14]: > 100 µM
- GI50 [15]: > 100 µM
- TGI [15]: > 100 µM
- GI50 [16]: > 100 µM
- TGI [16]: > 100 µM
- GI50 [17]: 70.7 µM
- TGI [17]: > 100 µM
- GI50 [18]: > 100 µM
- TGI [18]: > 100 µM
- GI50 [19]: 71.5 µM
- TGI [19]: > 100 µM
- GI50 [20]: > 100 µM
- TGI [20]: > 100 µM
- GI50 [21]: > 100 µM
- TGI [21]: > 100 µM
- GI50 [22]: > 100 µM
- TGI [22]: > 100 µM
- GI50 [23]: 93.4 µM
- TGI [23]: > 100 µM
- GI50 [24]: > 100 µM
- TGI [24]: > 100 µM
- GI50 [25]: > 100 µM
- TGI [25]: > 100 µM
- GI50 [26]: 24.4 µM
- TGI [26]: > 100 µM
- GI50 [27]: > 100 µM
- TGI [27]: > 100 µM
- GI50 [28]: > 100 µM
- TGI [28]: > 100 µM
- GI50 [29]: > 100 µM
- TGI [29]: > 100 µM
- GI50 [30]: > 100 µM
- TGI [30]: > 100 µM
- GI50 [56]: 50.8 µM
- TGI [56]: > 100 µM
- GI50 [31]: > 100 µM
- TGI [31]: > 100 µM
- GI50 [32]: > 100 µM
- TGI [32]: > 100 µM
- GI50 [33]: > 100 µM
- TGI [33]: > 100 µM
- GI50 [34]: 61.7 µM
- TGI [34]: > 100 µM
- GI50 [35]: > 100 µM
- TGI [35]: > 100 µM
- GI50 [36]: 1.97 µM
- TGI [36]: > 100 µM
- GI50 [57]: 5.98 µM
- TGI [57]: > 100 µM
- GI50 [37]: > 100 µM
- TGI [37]: > 100 µM
- GI50 [38]: > 100 µM
- TGI [38]: > 100 µM
- GI50 [39]: > 100 µM
- TGI [39]: > 100 µM
- GI50 [40]: > 100 µM
- TGI [40]: > 100 µM
- GI50 [41]: > 100 µM
- TGI [41]: > 100 µM
- GI50 [42]: 83.9 µM
- TGI [42]: > 100 µM
- GI50 [43]: > 100 µM
- TGI [43]: > 100 µM
- GI50 [44]: > 100 µM
- TGI [44]: > 100 µM
- GI50 [45]: > 100 µM
- TGI [45]: > 100 µM
- GI50 [46]: > 100 µM
- TGI [46]: > 100 µM
- GI50 [58]: > 100 µM
- TGI [58]: > 100 µM
- GI50 [59]: > 100 µM
- TGI [59]: > 100 µM
- GI50 [47]: > 100 µM
- TGI [47]: > 100 µM
- GI50 [48]: > 100 µM
- TGI [48]: > 100 µM
- GI50 [49]: > 100 µM
- TGI [49]: > 100 µM
- GI50 [50]: > 100 µM
- TGI [50]: > 100 µM
- GI50 [51]: > 100 µM
- TGI [51]: > 100 µM
- GI50 [52]: > 100 µM
- TGI [52]: > 100 µM
- GI50 [53]: > 100 µM
- TGI [53]: > 100 µM
- GI50 [54]: > 100 µM
- TGI [54]: > 100 µM
- GI50 [55]: > 100 µM
- TGI [55]: > 100 µM
